Assay results published in the supplement of paper PMC10627819.
Values after ≈ are worked out from the molar mass of the structure shown.

Key:
[1] = tested on: S. aureus Newman; assay: fitness (endpoint OD595 vs no drug) (fraction); higher = more growth
Method in brief: (§1)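 Fitness was measured as bacterial growth in 384-well plates inoculated at OD595 0.01 (30 µl, or 55 µl for S. pneumoniae). Media were TSB, LB Lennox or CY, at 37 °C. OD595 was read every 30 min for 14 h and background-subtracted against the first reading. Fitness is OD595 at the transition into stationary phase divided by the robust mean of no-drug control wells, capped at 1.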

[2] = tested on: S. aureus DSM 20231; assay: as above
Method in brief: as §1

[3] = tested on: S. pneumoniae D39V; assay: as above
Method in brief: as §1

[4] = tested on: B. subtilis 168; assay: as above
Method in brief: as §1

[5] = tested on: S. aureus Newman; assay: Bliss interaction score (quartile over a dose matrix) (fitness difference); higher = more antagonism (negative = synergy)
Method in brief: (§2)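 Growth was read as OD595 when cultures entered stationary phase, and each value was divided by the plate's robust no-drug mean and capped at 1. This normalised ratio is the fitness value, and fitness for each single drug came from the combination data. The Bliss score subtracts the expected fitness, taken as the product, from the observed fitness and is given as quartiles across technical, biological and donor/recipient replicates.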

[6] = tested on: S. aureus DSM 20231; assay: as above
Method in brief: as §2

[7] = tested on: S. pneumoniae D39V; assay: as above
Method in brief: as §2

[8] = tested on: B. subtilis 168; assay: as above
Method in brief: as §2

[9] = tested on: S. aureus Newman
[10] = tested on: S. aureus DSM 20231
[11] = tested on: S. pneumoniae D39V
[12] = tested on: B. subtilis 168
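Wherever Bliss interaction score (quartile over a dose matrix) is given: first quartile when negative (synergy) and third quartile when positive (antagonism).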

CCCCCCCCCC(=O)N[C@@H](Cc1c[nH]c2ccccc12)C(=O)N[C@H](CC(N)=O)C(=O)N[C@@H](CC(=O)O)C(=O)N[C@@H]1C(=O)NCC(=O)N[C@@H](CCCN)C(=O)N[C@@H](CC(=O)O)C(=O)N[C@H](C)C(=O)N[C@@H](CC(=O)O)C(=O)NCC(=O)N[C@H](CO)C(=O)N[C@@H]([C@H](C)CC(=O)O)C(=O)N[C@@H](CC(=O)c2ccccc2N)C(=O)O[C@@H]1C [Daptomycin] + O=C(O[C@@H]1Cc2c(O)cc(O)cc2O[C@@H]1c1cc(O)c(O)c(O)c1)c1cc(O)c(O)c(O)c1 [EGCG]
fitness
Conditions | partner 6.25 µg/mL | partner 12.5 µg/mL | partner 25 µg/mL | partner 50 µg/mL
[1], first compound 0.125 µg/mL | – | 0.817 | 0.79 | 0.742
[1], first compound 0.25 µg/mL | – | 0.828 | 0.815 | 0.754
[1], first compound 0.5 µg/mL | – | 0.861 | 0.843 | 0.742
[2], first compound 0.5 µg/mL | – | 0.814 | 0.778 | 0.808
[2], first compound 1 µg/mL | – | 0.788 | 0.721 | 0.699
[2], first compound 2 µg/mL | – | 0.728 | 0.736 | –
[3], first compound 1 µg/mL | – | 0.909 | 0.95 | –
[3], first compound 2 µg/mL | – | 0.921 | 0.906 | 0.971
[3], first compound 4 µg/mL | – | – | – | 0.832
[4], first compound 0.125 µg/mL | 0.906 | – | 0.305 | –
[4], first compound 0.25 µg/mL | 0.895 | 0.719 | – | –
[4], first compound 0.5 µg/mL | 0.838 | 0.598 | – | –

[4], first compound 1 µg/mL, one replicate
Conditions | fitness
partner 6.25 µg/mL | 0.665
partner 12.5 µg/mL | 0.399
partner 25 µg/mL | 0.0311

Conditions | Bliss interaction score
[5] | 0.0602
[6] | -0.0959
[7] | 0.0768
[8] | -0.0882

CN(C)C(=O)C(CCN1CCC(O)(c2ccc(Cl)cc2)CC1)(c1ccccc1)c1ccccc1 [Loperamide]
Conditions | MIC [µg/mL]
[9] | 120 (≈ 252 µM)
[10] | 120 (≈ 252 µM)
[11] | 200 (≈ 419 µM)
[12] | 100 (≈ 210 µM)

fitness
Conditions | 20 µg/mL | 25 µg/mL | 40 µg/mL | 50 µg/mL | 80 µg/mL | 100 µg/mL
[2] | – | ≥ 1 | – | 0.925 | – | 0.0918
[3] | ≥ 1 | – | ≥ 1 | – | 0.869 | –
[4] | – | 0.651 | – | 0.254 | – | 0.03

CCN(CC)CCOC(=O)c1ccc(N)cc1 [Procaine] + CN[C@@H]1[C@H](O)[C@H](NC)[C@H]2O[C@@]3(O)C(=O)C[C@@H](C)O[C@H]3O[C@@H]2[C@H]1O [Spectinomycin]
fitness
Conditions | first compound 85.5 µg/mL | first compound 171 µg/mL | first compound 342 µg/mL
[1], partner 4 µg/mL | 0.886 | 0.891 | 0.89
[1], partner 8 µg/mL | ≥ 1 | 0.968 | 0.962
[1], partner 16 µg/mL | 0.896 | 0.905 | 0.88
[2], partner 4 µg/mL | 0.959 | 0.931 | 0.914
[2], partner 8 µg/mL | 0.948 | 0.911 | 0.928
[2], partner 16 µg/mL | 0.82 | 0.848 | 0.868
[3], partner 4 µg/mL | ≥ 1 | 0.973 | 0.914
[3], partner 8 µg/mL | 0.964 | 0.955 | 0.929
[4], partner 2 µg/mL | 0.972 | 0.926 | 0.923
[4], partner 4 µg/mL | 0.938 | 0.963 | 0.93
[4], partner 8 µg/mL | 0.895 | 0.84 | 0.824

fitness, one replicate
Conditions | first compound 85.5 µg/mL | first compound 171 µg/mL | first compound 342 µg/mL
[1], partner 32 µg/mL | 0.678 | 0.652 | 0.629
[1], partner 64 µg/mL | 0.139 | 0.132 | 0.147
[2], partner 32 µg/mL | 0.744 | 0.724 | 0.813
[2], partner 64 µg/mL | 0.0918 | 0.0696 | 0.107
[3], partner 16 µg/mL | 0.866 | 0.857 | 0.849

Conditions | Bliss interaction score
[5] | 0.0891
[6] | 0.0496
[7] | 0.0382
[8] | -0.0468

CCCCCCCCCC(=O)N[C@@H](Cc1c[nH]c2ccccc12)C(=O)N[C@H](CC(N)=O)C(=O)N[C@@H](CC(=O)O)C(=O)N[C@@H]1C(=O)NCC(=O)N[C@@H](CCCN)C(=O)N[C@@H](CC(=O)O)C(=O)N[C@H](C)C(=O)N[C@@H](CC(=O)O)C(=O)NCC(=O)N[C@H](CO)C(=O)N[C@@H]([C@H](C)CC(=O)O)C(=O)N[C@@H](CC(=O)c2ccccc2N)C(=O)O[C@@H]1C [Daptomycin] + COc1ccc(C[C@H](N)C(=O)N[C@H]2[C@@H](O)[C@H](n3cnc4c(N(C)C)ncnc43)O[C@@H]2CO)cc1 [Puromycin]
fitness
Conditions | first compound 0.125 µg/mL | first compound 0.25 µg/mL | first compound 0.5 µg/mL | first compound 1 µg/mL | first compound 2 µg/mL | first compound 4 µg/mL
[1], partner 0.39 µg/mL | 0.998 | 1 | 0.997 | – | – | –
[1], partner 0.78 µg/mL | 0.992 | 0.989 | 0.995 | – | – | –
[1], partner 1.56 µg/mL | ≥ 1 | 0.983 | ≥ 1 | – | – | –
[2], partner 0.39 µg/mL | – | – | 0.993 | ≥ 1 | ≥ 1 | –
[2], partner 0.78 µg/mL | – | – | ≥ 1 | 0.977 | ≥ 1 | –
[2], partner 1.56 µg/mL | 0.953 | ≥ 1 | ≥ 1 | 0.989 | 0.957 | –
[3], partner 1 µg/mL | – | – | – | 0.939 | 0.969 | 0.922
[3], partner 2 µg/mL | – | – | – | 0.892 | 0.876 | 0.909
[3], partner 4 µg/mL | – | – | – | 0.32 | – | –
[4], partner 0.39 µg/mL | 0.937 | 0.932 | 0.894 | – | – | –
[4], partner 0.78 µg/mL | 0.912 | 0.91 | 0.864 | – | – | –
[4], partner 1.56 µg/mL | 0.906 | 0.916 | 0.841 | – | – | –

fitness, one replicate
Conditions | partner 0.39 µg/mL | partner 0.78 µg/mL | partner 1.56 µg/mL | partner 3.12 µg/mL | partner 6.24 µg/mL
[2], first compound 0.125 µg/mL | 0.935 | ≥ 1 | – | 0.968 | 0.865
[2], first compound 0.25 µg/mL | ≥ 1 | ≥ 1 | – | 0.932 | 0.81
[2], first compound 0.5 µg/mL | – | – | – | 0.962 | 0.762
[4], first compound 1 µg/mL | 0.719 | 0.737 | 0.749 | – | –

Conditions | Bliss interaction score
[5] | 0.0477
[6] | 0.0803
[7] | -0.0975
[8] | 0.0496
